The values that follow come from patent US20220402935A1, “HETEROCYCLIC COMPOUND” (FIMECS, INC., priority 2019, published 2022).

As usually defined, the IC50 is the concentration needed to halve the response being measured.

Structures are written as SMILES. Counter-ions that a name gives are not always drawn.

Assay [1] addresses T1, human XIAP_BIR3 domain purified protein (Homo sapiens, UniProt P98170).
T1 construct: purchased R & D
The assay is described as follows: XIAP binding inhibitory activity (HTRF, b-Smac ligand). To be noted: second symbol of cell; read-out: XIAP binding inhibition IC50 value. In outline: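 HTRF competition between compound and C-terminally biotinylated Smac peptide AVPIAQK for His-tagged XIAP BIR3, both diluted to 90 nM before addition, in pH 7.5 HEPES/NaCl/BSA/Triton buffer. Eu-cryptate anti-His and streptavidin-XL665 added, ≥4 h at room temperature in the dark; inhibition % from 665/615 nm ratio versus no-compound wells.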
On the technique in general: TR-FRET usually uses a lanthanide donor and a delayed reading to cut background.

Assay [2] addresses T2, IRAK-M (Homo sapiens, UniProt Q9Y616).
T2 sequence (Q9Y616 1-596): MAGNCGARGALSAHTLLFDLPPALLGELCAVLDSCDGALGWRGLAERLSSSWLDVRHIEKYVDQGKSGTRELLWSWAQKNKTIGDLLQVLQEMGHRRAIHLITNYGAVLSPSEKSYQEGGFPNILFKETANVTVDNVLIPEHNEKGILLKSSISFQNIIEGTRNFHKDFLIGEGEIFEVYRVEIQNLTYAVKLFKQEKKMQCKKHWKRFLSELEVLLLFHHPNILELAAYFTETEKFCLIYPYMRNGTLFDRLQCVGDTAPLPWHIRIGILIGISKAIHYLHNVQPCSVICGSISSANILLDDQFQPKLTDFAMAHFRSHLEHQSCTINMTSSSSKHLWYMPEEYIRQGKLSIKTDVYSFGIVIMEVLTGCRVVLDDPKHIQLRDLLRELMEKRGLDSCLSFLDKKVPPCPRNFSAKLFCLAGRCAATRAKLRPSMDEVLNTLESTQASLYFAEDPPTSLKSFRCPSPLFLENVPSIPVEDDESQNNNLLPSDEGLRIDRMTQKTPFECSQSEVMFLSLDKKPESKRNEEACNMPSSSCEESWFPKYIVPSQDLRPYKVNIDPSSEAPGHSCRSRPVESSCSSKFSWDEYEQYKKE
The assay is described as follows: In vitro degradation activity of target protein (IRAK-M ELISA in THP1 cells). The format is cell-based. Set-up: host or cells: THP1 cells. The conditions noted are these: 24 hours, second symbol of cell, read-out: IRAK-M 50% degradation concentration (DC50 value). Here is the method: In vitro degradation activities of target protein of the example compounds were evaluated using Enzyme-linked immuno-sorbent assay (ELISA) by the following assay steps. THP1 cells (ATCC, TIB-202) were cultured in RPMI-1640 supplemented with 10% FBS, lx sodium pyruvate, lx HEPES, D-(+)-glucose and 1% penicillin/streptomycin. THP1 cells were seeded at a density of 1×10^6 cells/well in 24-well plate and treated with DMSO control or test compound, and then incubated for 24 hours. The cells were collected and lysed on ice for 30 minutes in lysis buffer (PBS containing 0.1% Triton X-100) containing a protease inhibitor cocktail (Roche, Cat #11836170001). The lysates were sonicated for 30 sec ON/30 sec OFF for ten cycles and centrifuged for 10 minutes at 13k rpm at 4° C. Protein concentrations were determined by the BCA assay (Sigma, Cat #QPBCA-1KT). The ELISA assay was performed using the Human IRAK3/IRAKM/IRAK-M ELISA Kit (LifeSpan BioSciences, Cat #LS-F35271), and the protein levels of IRAK-M were evaluated according to the kit protocol. As to the IRAK-M degradation rate of test compounds, protein degradation rate (%) when the concentration of the test compound is […] described as A≥75%, 50%≤B<75%, 25%≤C<50%, D<25%, or 50% degradation concentration (DC50 value) described as A<0.03 μM, 0.03 μM≤B<0.1 μM, 0.1 μM≤C<0.3 μM, 0.3 μM≤D<1 μM, is shown in the table below.
(In general: An ELISA detects its analyte on a solid surface through an enzyme-linked reagent.)

Assay [3] deals with T2, IRAK-M. The assay is described as follows: IRAK-M binding inhibitory activity (KINOMEscan active site-dependent competitive assay). The arrangement: purchased Eurofins Discover X. The conditions noted are these: for remaining binding at 1 µM: concentration of the test compound 1 μM, first symbol of cell, read-out: IRAK-M binding inhibition activity % Ctrl. In outline: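 Readout given as % Ctrl, with DMSO as 100% and a control compound as 0%, scaling the test compound signal between them. Binding to human IRAK-M was assessed by KINOMEscan competition at the kinase active site.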

T1 sequence (P98170 252-356 limits assumed): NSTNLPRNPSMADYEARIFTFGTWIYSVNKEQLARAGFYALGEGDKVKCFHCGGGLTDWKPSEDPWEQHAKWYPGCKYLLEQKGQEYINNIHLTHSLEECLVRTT

Take `CN[C@@H](C)C(=O)N[C@H](C(=O)N1CCN(C(=O)c2c(C(=O)N(C)CCOCCOCCOc3cc(CN4CCC(Oc5ccnc6ccsc56)CC4)on3)c3cc(F)c(F)cc3n2C)CC1)C1CCCCC1` [Example 1, 2-(4-((S)-2-Cyclohexyl-2-((S)-2-(methylamino)propanamido)acetyl)piperazine-1-carbonyl)-5,6-difluoro-N,1-dimethyl-N-(2-(2-(2-((5-((4-(thieno[3,2-b]pyridin-7-yloxy)piperidin-1-yl)methyl)isoxazol-3-yl)oxy)ethoxy)ethoxy)ethyl)-1H-indole-3-carboxamide hydrochloride]: the IC50 in assay [1] is 300 to 3000 nM; at IRAK-M [3] (second symbol of cell, read-out: IRAK-M binding inhibition IC50 value) it was 300 to 1000 nM. Further, the DC50 on IRAK-M [2] lay in the range of 300 to 1000 nM.

Regarding `CN[C@@H](C)C(=O)N[C@H](C(=O)N1CCN(C(=O)c2c(C(=O)NCCOCCOCCOc3cc(CN4CCC(Oc5ccnc6ccsc56)CC4)on3)c3cc(F)c(F)cc3n2C)[C@@H](C)C1)C1CCCCC1` [Example 12, 2-((S)-4-((S)-2-cyclohexyl-2-((S)-2-(methylamino)propanamido)acetyl)-2-methylpiperazine-1-carbonyl)-5,6-difluoro-1-methyl-N-(2-(2-(2-((5-((4-(thieno[3,2-b]pyridin-7-yloxy)piperidin-1-yl)methyl)isoxazol-3-yl)oxy)ethoxy)ethoxy)ethyl)-1H-indole-3-carboxamide], the IC50 in assay [1] is 300 to 3000 nM. The DC50 at IRAK-M [2] fell in the range of 100 to 300 nM. Moreover, the remaining binding at 1 µM at IRAK-M [3] is less than 25%.

In the case of `CN[C@@H](C)C(=O)N[C@H](C(=O)N1CCN(C(=O)c2cc3cc(F)c(F)cc3n2CC(=O)N(C)CCOCCOCCOCCOc2cc(CN3CCC(Oc4ccnc5ccsc45)CC3)on2)CC1)C1CCCCC1` [Example 24, (S)-N-((S)-1-Cyclohexyl-2-(4-(5,6-difluoro-1-(3-methyl-2-oxo-14-((5-((4-(thieno[3,2-b]pyridin-7-yloxy)piperidin-1-yl)methyl)isoxazol-3-yl)oxy)-6,9,12-trioxa-3-azatetradecyl)-1H-indole-2-carbonyl)piperazin-1-yl)-2-oxoethyl)-2-(methylamino)propanamide hydrochloride], the IC50 in assay [1] was in the range of 3000 to 30000 nM. In addition, the DC50 at IRAK-M [2] lay in the range of 300 to 1000 nM. For the same compound, the remaining binding at 1 µM on IRAK-M [3] was less than 25%.

Consider `CN[C@@H](C)C(=O)N[C@H](C(=O)N1CCN(C(=O)c2cc3cc(F)c(F)cc3n2CC(=O)N2CCC[C@H]2COc2cc(CN3CCC(Oc4ccnc5ccsc45)CC3)on2)CC1)C1CCCCC1` [Example 25, (S)-N-((S)-1-Cyclohexyl-2-(4-(5,6-difluoro-1-(2-oxo-2-((S)-2-(((5-((4-(thieno[3,2-b]pyridin-7-yloxy)piperidin-1-yl)methyl)isoxazol-3-yl)oxy)methyl)pyrrolidin-1-yl)ethyl)-1H-indole-2-carbonyl)piperazin-1-yl)-2-oxoethyl)-2-(methylamino)propanamide hydrochloride], for which the IC50 in assay [1] was 3000 to 30000 nM. On IRAK-M [2], the DC50 lay in the range of 30 to 100 nM. Moreover, the remaining binding at 1 µM at IRAK-M [3] was less than 25%.

Consider `CN[C@@H](C)C(=O)N[C@H](C(=O)N1CCN(C(=O)c2cc3cc(F)c(F)cc3n2CC(=O)N2CCC[C@H]2COc2cc(CN3CCC(Oc4ccnc5ccsc45)CC3)on2)CC1)C1CCC(F)(F)CC1` [Example 48, (S)-N-((S)-2-(4-(5,6-difluoro-1-(2-oxo-2-((S)-2-(((5-((4-(thieno[3,2-b]pyridin-7-yloxy)piperidin-1-yl)methyl)isoxazol-3-yl)oxy)methyl)pyrrolidin-1-yl)ethyl)-1H-indole-2-carbonyl)piperazin-1-yl)-1-(4,4-difluorocyclohexyl)-2-oxoethyl)-2-(methylamino)propanamide], for which the IC50 in assay [1] was 3000 to 30000 nM. In addition, the DC50 at IRAK-M [2] fell in the range of 100 to 300 nM.

As for `CN[C@@H](C)C(=O)N[C@H](C(=O)N1CCN(C(=O)c2cc3cc(F)c(F)cc3n2CC(=O)N2CCC[C@H]2COc2cc(CN3CCC(Oc4ccnc5ccsc45)CC3)on2)[C@@H](C)C1)C1CCC(F)(F)CC1` [Example 49, (S)-N-((S)-2-((S)-4-(5,6-difluoro-1-(2-oxo-2-((S)-2-(((5-((4-(thieno[3,2-b]pyridin-7-yloxy)piperidin-1-yl)methyl)isoxazol-3-yl)oxy)methyl)pyrrolidin-1-yl)ethyl)-1H-indole-2-carbonyl)-3-methylpiperazin-1-yl)-1-(4,4-difluorocyclohexyl)-2-oxoethyl)-2-(methylamino)propanamide], the IC50 in assay [1] lay in the range of 3000 to 30000 nM. Further, the DC50 on IRAK-M [2] fell in the range of 30 to 100 nM.

On to `CN[C@@H](C)C(=O)N[C@H](C(=O)N1CCN(C(=O)c2ccc3c(c2)cc(C)n3CCOCCOCCOc2cc(CN3CCC(Oc4ccnc5ccsc45)CC3)on2)CC1)C1CCCCC1` [Example 55, (S)-N-((S)-1-cyclohexyl-2-(4-(2-methyl-1-(2-(2-(2-((5-((4-(thieno[3,2-b]pyridin-7-yloxy)piperidin-1-yl)methyl)isoxazol-3-yl)oxy)ethoxy)ethoxy)ethyl)-1H-indole-5-carbonyl)piperazin-1-yl)-2-oxoethyl)-2-(methylamino)propanamide], for which, in assay [1], the IC50 lay within 300 to 3000 nM. Further, the remaining binding at 1 µM at IRAK-M [3] fell in the range of 25 to 50%.

Take `CN[C@@H](C)C(=O)N[C@H](C(=O)N1CCN(C(=O)c2ccc3c(c2)cc(C)n3CCOCCOCCOc2cc(CN3CCC(Oc4ccnc5ccsc45)CC3)on2)C[C@H]1C)C1CCCCC1` [Example 56, (S)-N-((S)-1-cyclohexyl-2-((R)-2-methyl-4-(2-methyl-1-(2-(2-(2-((5-((4-(thieno[3,2-b]pyridin-7-yloxy)piperidin-1-yl)methyl)isoxazol-3-yl)oxy)ethoxy)ethoxy)ethyl)-1H-indole-5-carbonyl)piperazin-1-yl)-2-oxoethyl)-2-(methylamino)propanamide]: the IC50 in assay [1] is 300 to 3000 nM. Also, the remaining binding at 1 µM at IRAK-M [3] was 50 to 75%.

On to `CN[C@@H](C)C(=O)N[C@H](C(=O)N1CCN(C(=O)c2ccc3c(c2)c(F)c(C)n3CCOCCOCCOc2cc(CN3CCC(Oc4ccnc5ccsc45)CC3)on2)CC1)C1CCCCC1` [Example 57, (S)-N-((S)-1-cyclohexyl-2-(4-(3-fluoro-2-methyl-1-(2-(2-(2-((5-((4-(thieno[3,2-b]pyridin-7-yloxy)piperidin-1-yl)methyl)isoxazol-3-yl)oxy)ethoxy)ethoxy)ethyl)-1H-indole-5-carbonyl)piperazin-1-yl)-2-oxoethyl)-2-(methylamino)propanamide], for which the IC50 in assay [1] was in the range of 300 to 3000 nM. For the same compound, the remaining binding at 1 µM on IRAK-M [3] fell in the range of 25 to 50%.

In the case of `CN[C@@H](C)C(=O)N[C@H](C(=O)N1CCC[C@H]1c1nc(C(=O)c2cccc(OCCOCCOc3cc(CN4CCC(Oc5ccnc6ccsc56)CC4)on3)c2)cs1)C1CCCCC1` [Example 58, (S)-N-((S)-1-cyclohexyl-2-oxo-2-((S)-2-(4-(3-(2-(2-((5-((4-(thieno[3,2-b]pyridin-7-yloxy)piperidin-1-yl)methyl)isoxazol-3-yl)oxy)ethoxy)ethoxy)benzoyl)thiazol-2-yl)pyrrolidin-1-yl)ethyl)-2-(methylamino)propanamide], the IC50 in assay [1] is less than 300 nM. Further, the remaining binding at 1 µM at IRAK-M [3] was less than 25%.

In the case of `CN[C@@H](C)C(=O)N[C@H](C(=O)N1CCC[C@H]1c1nc(C(=O)c2cccc(OCCOCCOCCOCCOc3cc(CN4CCC(Oc5ccnc6ccsc56)CC4)on3)c2)cs1)C1CCCCC1` [Example 60, (S)-N-((S)-1-cyclohexyl-2-oxo-2-((S)-2-(4-(3-(2-(2-(2-(2-((5-((4-(thieno[3,2-b]pyridin-7-yloxy)piperidin-1-yl)methyl)isoxazol-3-yl)oxy)ethoxy)ethoxy)ethoxy)ethoxy)benzoyl)thiazol-2-yl)pyrrolidin-1-yl)ethyl)-2-(methylamino)propanamide], the IC50 in assay [1] is less than 300 nM. Also, the remaining binding at 1 µM at IRAK-M [3] was less than 25%.
